Several values for one entry are separate records, joined by “and”; a condition that tells them apart may be missing. Equal entries are not always repeated. Where two headings read alike, the source gives them in different places. Blank lines part the entries; values can stand above or below the compound they belong to.
Legend:
LYN = LYN (Homo sapiens (Human), UniProt P07948); experiment: Reaction Biology HotSpot kinase assay; type: biochemical; conditions: 500 nM compound; for inhibition at 0.5 µM: read-out: Percentage kinase inhibition LYN
Procedure, shortened: (§1)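 Each compound was tested at 500 nM, with 33P incorporation from ATP (100 μM final, including [γ-33P]ATP) measured by P81 paper capture after a 2 h room-temperature reaction.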

IKKa/CHUK = IKKa/CHUK (Homo sapiens (Human), UniProt O15111); experiment: Reaction Biology HotSpot kinase assay; type: biochemical; conditions: 500 nM compound; for inhibition at 0.5 µM: read-out: Percentage kinase inhibition IKKa/CHUK
Procedure, shortened: as §1

LYN B = LYN B (Homo sapiens (Human), UniProt P07948); experiment: Reaction Biology HotSpot kinase assay; type: biochemical; conditions: 500 nM compound; for inhibition at 0.5 µM: read-out: Percentage kinase inhibition LYN B
Procedure, shortened: as §1

ROCK1 = ROCK1 (Homo sapiens (Human), UniProt Q13464); experiment: Reaction Biology HotSpot kinase assay; type: biochemical; conditions: 500 nM compound; for inhibition at 0.5 µM: read-out: Percentage kinase inhibition ROCK1
Procedure, shortened: as §1

HCK = HCK (Homo sapiens (Human), UniProt P08631); experiment: Reaction Biology HotSpot kinase assay; type: biochemical; conditions: 500 nM compound; for inhibition at 0.5 µM: read-out: Percentage kinase inhibition HCK
Procedure, shortened: as §1

TRKC = TRKC (Homo sapiens (Human), UniProt Q16288); experiment: Reaction Biology HotSpot kinase assay; type: biochemical; conditions: 500 nM compound, 100 μM radiolabeled ATP
Procedure, shortened: (§2)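 Compounds were screened at one concentration, 500 nM, in a radiometric kinase reaction. After a 20-minute preincubation with enzyme and substrate in pH 7.5 HEPES buffer (1% DMSO), the mixture received 100 μM ATP containing [γ-33P]ATP and was left 2 h at room temperature.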

CTK/MATK = CTK/MATK (Homo sapiens (Human), UniProt P42679); experiment: Reaction Biology HotSpot kinase assay; type: biochemical; conditions: 500 nM compound; for inhibition at 0.5 µM: read-out: Percentage kinase inhibition CTK/MATK
Procedure, shortened: as §1

HIPK1 = HIPK1 (Homo sapiens (Human), UniProt Q86Z02); experiment: Reaction Biology HotSpot kinase assay; type: biochemical; conditions: 500 nM compound; for inhibition at 0.5 µM: read-out: Percentage kinase inhibition HIPK1
Procedure, shortened: as §1

MKK7 = MKK7 (Homo sapiens (Human), UniProt O14733); experiment: Reaction Biology HotSpot kinase assay; type: biochemical; conditions: 500 nM compound; for inhibition at 0.5 µM: read-out: Percentage kinase inhibition MKK7
Procedure, shortened: as §1

MELK = MELK (Homo sapiens (Human), UniProt Q14680); experiment: Reaction Biology HotSpot kinase assay; type: biochemical; conditions: 500 nM compound; for inhibition at 0.5 µM: read-out: Percentage kinase inhibition MELK
Procedure, shortened: as §1

c-kit = c-kit (Homo sapiens (Human), UniProt P10721); experiment: Reaction Biology HotSpot kinase assay; type: biochemical; conditions: 500 nM compound, 100 μM radiolabeled ATP
Procedure, shortened: as §2

FYN = FYN (Homo sapiens (Human), UniProt P06241); experiment: Reaction Biology HotSpot kinase assay; type: biochemical; conditions: 500 nM compound; for inhibition at 0.5 µM: read-out: Percentage kinase inhibition FYN
Procedure, shortened: as §1

MEK1 = MEK1 (Homo sapiens (Human), UniProt Q02750); experiment: Reaction Biology HotSpot kinase assay; type: biochemical; conditions: 500 nM compound; for inhibition at 0.5 µM: read-out: Percentage kinase inhibition MEK1
Procedure, shortened: as §1

JNK1 = JNK1 (Homo sapiens (Human), UniProt P45983); experiment: Reaction Biology HotSpot kinase assay; type: biochemical; conditions: 500 nM compound; for inhibition at 0.5 µM: read-out: Percentage kinase inhibition JNK1
Procedure, shortened: as §1

MUSK = MUSK (Homo sapiens (Human), UniProt O15146); experiment: Reaction Biology HotSpot kinase assay; type: biochemical; conditions: 500 nM compound; for inhibition at 0.5 µM: read-out: Percentage kinase inhibition MUSK
Procedure, shortened: as §1

RET = RET (Homo sapiens (Human), UniProt P07949); experiment: Reaction Biology HotSpot kinase assay; type: biochemical; conditions: 500 nM compound; for inhibition at 0.5 µM: read-out: Percentage kinase inhibition RET
Procedure, shortened: as §1

CDK1/cyclin E = CDK1/cyclin E (Homo sapiens (Human), UniProt P06493); experiment: Reaction Biology HotSpot kinase assay; type: biochemical; conditions: 500 nM compound; for inhibition at 0.5 µM: read-out: Percentage kinase inhibition CDK1/cyclin E
Procedure, shortened: as §1

AKT2 = AKT2 (Homo sapiens (Human), UniProt P31751); experiment: Reaction Biology HotSpot kinase assay; type: biochemical; conditions: 500 nM compound; for inhibition at 0.5 µM: read-out: Percentage kinase inhibition AKT2
Procedure, shortened: as §1

ZAP70 = ZAP70 (Homo sapiens (Human), UniProt P43403); experiment: Reaction Biology HotSpot kinase assay; type: biochemical; conditions: 500 nM compound; for inhibition at 0.5 µM: read-out: Percentage kinase inhibition ZAP70
Procedure, shortened: as §1

RON/MST1R = RON/MST1R (Homo sapiens (Human), UniProt Q04912); experiment: Reaction Biology HotSpot kinase assay; type: biochemical; conditions: 500 nM compound; for inhibition at 0.5 µM: read-out: Percentage kinase inhibition RON/MST1R
Procedure, shortened: as §1

TGFBR2 = TGFBR2 (Homo sapiens (Human), UniProt P37173); experiment: Reaction Biology HotSpot kinase assay; type: biochemical; conditions: 500 nM compound; for inhibition at 0.5 µM: read-out: Percentage kinase inhibition TGFBR2
Procedure, shortened: as §1

RSK2 = RSK2 (Homo sapiens (Human), UniProt P51812); experiment: Reaction Biology HotSpot kinase assay; type: biochemical; conditions: 500 nM compound; for inhibition at 0.5 µM: read-out: Percentage kinase inhibition RSK2
Procedure, shortened: as §1

MOLM14 = experiment: IC50 determination (proliferation assay, CellTiter-Blue); type: cell-based
Procedure: Cell lines were seeded into 96-well plates the afternoon prior to treatment. Approximately 18 hours later, compounds were diluted in dimethyl sulfoxide (DMSO) and added to cells. Plates were incubated for 72 hours and cells viability determined with CellTiter-Blue Cell Viability Assay (Promega, Madison, WI). Plates were read after 4 additional hours of incubation at 37° C. using plate reader (Bio-Tek, Winooski. VT). Data was analyzed and graphed using GraphPad Prism Software (Graphpad. La Jolla, CA). […]

NCI H1703 (NSCLC) = experiment: Activity against lung cancer cell line; type: cell-based; conditions: Homo sapiens, NCI-H1703
FLT3 = FLT3 (Homo sapiens (Human), UniProt P36888); experiment: DiscoverX Kd Elect binding
Source text: Although the current drugs on the market or in clinical trials are relatively successful in killing the AML leukemia cells, they currently are unable to deal with secondary mutations that occur after TKI treatment, such as FLT3 ([…]).
HCK is expressed more in human primary leukemic stem cells than in human normal hematopoietic stem cells. […] Other protein kinases such as SYK, BRAF, p38 (p38MAPK), PDGFRα/β, FGFR1, RET, FLT4, Tie2 have also been linked to leukemia. […] (Table 9). The inhibition of the Src-kinase family could be important clinically because these kinases are downstream of FLT3. In the event of FLT3 mutation, the inhibition of the Src-family kinases could still lead to proliferation inhibition.

CDK1/cyclin E, sequence (P06493 whole entry): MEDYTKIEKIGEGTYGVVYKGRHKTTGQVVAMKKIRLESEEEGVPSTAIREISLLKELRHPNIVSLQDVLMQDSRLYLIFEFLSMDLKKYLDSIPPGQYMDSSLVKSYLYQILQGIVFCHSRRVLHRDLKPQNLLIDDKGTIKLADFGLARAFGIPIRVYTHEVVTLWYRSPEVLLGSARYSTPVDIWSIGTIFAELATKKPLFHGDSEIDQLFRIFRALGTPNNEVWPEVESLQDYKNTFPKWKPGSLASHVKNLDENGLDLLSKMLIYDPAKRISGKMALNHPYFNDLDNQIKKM
CDK1/cyclin E, sequence (P24864 whole entry partner): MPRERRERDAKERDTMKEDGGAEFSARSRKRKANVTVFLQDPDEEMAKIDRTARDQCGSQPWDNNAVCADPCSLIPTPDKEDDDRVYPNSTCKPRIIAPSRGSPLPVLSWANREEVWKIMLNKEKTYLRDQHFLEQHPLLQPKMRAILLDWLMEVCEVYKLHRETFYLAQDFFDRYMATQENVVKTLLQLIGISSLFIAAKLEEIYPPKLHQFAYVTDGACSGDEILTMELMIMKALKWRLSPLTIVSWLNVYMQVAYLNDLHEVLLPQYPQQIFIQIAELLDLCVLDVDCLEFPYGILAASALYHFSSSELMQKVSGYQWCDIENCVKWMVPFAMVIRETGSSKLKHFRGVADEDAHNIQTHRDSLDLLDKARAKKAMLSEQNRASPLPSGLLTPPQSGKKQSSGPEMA
RSK2, sequence (P51812 whole entry): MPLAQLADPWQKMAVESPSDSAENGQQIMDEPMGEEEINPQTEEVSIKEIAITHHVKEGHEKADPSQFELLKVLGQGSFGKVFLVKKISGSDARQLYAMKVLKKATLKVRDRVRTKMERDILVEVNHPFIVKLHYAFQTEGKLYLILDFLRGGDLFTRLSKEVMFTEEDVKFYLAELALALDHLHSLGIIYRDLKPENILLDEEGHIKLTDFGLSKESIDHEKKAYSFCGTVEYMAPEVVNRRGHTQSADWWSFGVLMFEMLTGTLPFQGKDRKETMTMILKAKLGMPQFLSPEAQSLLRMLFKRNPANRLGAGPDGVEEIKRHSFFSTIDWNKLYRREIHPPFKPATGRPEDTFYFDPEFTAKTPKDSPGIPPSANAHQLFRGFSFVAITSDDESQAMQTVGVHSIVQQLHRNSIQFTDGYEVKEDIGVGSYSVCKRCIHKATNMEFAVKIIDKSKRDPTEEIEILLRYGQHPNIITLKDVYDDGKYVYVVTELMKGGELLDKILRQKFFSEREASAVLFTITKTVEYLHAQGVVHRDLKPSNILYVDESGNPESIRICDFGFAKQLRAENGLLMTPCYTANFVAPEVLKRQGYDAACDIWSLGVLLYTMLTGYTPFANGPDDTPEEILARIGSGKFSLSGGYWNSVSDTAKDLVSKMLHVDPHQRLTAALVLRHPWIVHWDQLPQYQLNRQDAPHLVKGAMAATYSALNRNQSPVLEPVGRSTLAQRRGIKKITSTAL
JNK1, sequence (P45983 whole entry): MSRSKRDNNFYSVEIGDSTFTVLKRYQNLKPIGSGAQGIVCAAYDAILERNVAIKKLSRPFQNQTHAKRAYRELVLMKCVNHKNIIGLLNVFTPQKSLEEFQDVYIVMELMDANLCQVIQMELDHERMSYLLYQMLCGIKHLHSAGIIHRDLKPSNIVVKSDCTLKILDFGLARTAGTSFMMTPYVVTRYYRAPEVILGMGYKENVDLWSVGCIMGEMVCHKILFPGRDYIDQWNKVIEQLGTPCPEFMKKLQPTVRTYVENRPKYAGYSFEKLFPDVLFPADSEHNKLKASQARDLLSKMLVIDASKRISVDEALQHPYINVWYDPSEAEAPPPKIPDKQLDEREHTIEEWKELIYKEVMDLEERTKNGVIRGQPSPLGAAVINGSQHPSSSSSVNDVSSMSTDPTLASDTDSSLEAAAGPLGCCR
FYN, sequence (P06241 whole entry): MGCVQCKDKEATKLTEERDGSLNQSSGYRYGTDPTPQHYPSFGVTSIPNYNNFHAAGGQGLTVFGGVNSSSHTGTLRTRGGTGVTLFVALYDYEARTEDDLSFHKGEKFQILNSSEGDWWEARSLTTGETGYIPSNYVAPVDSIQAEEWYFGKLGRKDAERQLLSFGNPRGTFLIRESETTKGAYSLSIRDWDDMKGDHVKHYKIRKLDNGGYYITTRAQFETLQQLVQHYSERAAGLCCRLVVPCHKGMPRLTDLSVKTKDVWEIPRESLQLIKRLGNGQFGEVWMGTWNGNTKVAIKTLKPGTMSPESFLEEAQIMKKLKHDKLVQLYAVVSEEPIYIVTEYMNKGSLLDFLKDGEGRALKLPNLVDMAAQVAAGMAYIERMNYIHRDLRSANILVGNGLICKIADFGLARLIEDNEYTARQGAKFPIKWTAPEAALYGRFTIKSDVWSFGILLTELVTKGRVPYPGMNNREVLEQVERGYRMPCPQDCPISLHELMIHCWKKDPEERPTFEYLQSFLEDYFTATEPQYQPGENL
c-kit, sequence (P10721 26-976): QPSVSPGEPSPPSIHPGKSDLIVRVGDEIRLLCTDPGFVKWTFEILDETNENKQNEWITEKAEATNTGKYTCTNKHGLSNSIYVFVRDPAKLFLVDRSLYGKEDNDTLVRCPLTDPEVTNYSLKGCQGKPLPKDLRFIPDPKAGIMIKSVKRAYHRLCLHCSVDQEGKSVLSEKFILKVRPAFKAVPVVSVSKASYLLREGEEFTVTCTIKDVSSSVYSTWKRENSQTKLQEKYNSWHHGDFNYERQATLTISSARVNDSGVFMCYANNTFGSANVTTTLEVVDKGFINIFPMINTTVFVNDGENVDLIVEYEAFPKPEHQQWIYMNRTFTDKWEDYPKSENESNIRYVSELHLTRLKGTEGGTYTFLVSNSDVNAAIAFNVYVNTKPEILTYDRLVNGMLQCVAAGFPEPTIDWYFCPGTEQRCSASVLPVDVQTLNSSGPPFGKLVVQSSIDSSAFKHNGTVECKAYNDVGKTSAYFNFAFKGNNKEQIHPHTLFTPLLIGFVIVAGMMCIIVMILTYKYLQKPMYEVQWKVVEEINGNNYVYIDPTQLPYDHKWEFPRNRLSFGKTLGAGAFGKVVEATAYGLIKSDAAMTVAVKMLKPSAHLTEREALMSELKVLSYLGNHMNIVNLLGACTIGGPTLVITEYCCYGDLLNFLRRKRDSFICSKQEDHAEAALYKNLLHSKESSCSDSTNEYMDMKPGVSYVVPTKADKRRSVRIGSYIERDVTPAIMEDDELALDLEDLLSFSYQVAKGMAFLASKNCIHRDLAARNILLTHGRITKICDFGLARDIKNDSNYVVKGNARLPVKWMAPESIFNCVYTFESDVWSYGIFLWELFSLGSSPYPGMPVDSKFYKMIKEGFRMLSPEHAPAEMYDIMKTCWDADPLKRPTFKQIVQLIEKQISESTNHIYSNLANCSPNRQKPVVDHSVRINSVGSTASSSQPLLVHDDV
IKKa/CHUK, sequence (O15111 whole entry): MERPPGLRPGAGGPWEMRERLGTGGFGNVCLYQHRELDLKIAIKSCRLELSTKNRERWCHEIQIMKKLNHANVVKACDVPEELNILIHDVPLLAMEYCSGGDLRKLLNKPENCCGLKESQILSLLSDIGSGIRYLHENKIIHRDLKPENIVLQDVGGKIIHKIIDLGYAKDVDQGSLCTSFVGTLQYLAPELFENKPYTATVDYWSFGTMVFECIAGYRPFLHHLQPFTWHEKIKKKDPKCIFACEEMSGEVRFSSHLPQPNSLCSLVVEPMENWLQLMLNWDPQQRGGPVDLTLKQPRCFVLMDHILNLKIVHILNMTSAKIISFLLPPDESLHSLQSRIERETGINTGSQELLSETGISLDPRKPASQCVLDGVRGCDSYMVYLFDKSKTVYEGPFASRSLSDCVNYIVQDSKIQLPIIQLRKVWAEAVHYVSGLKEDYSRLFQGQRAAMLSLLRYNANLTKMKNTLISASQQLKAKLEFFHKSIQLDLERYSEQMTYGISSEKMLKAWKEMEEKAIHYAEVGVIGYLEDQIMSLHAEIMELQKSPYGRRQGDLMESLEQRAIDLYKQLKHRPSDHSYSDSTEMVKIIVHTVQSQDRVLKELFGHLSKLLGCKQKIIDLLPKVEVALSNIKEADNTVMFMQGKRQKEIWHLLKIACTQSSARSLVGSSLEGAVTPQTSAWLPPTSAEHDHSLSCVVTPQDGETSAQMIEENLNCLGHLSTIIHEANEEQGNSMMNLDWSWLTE
TGFBR2, sequence (P37173 23-567): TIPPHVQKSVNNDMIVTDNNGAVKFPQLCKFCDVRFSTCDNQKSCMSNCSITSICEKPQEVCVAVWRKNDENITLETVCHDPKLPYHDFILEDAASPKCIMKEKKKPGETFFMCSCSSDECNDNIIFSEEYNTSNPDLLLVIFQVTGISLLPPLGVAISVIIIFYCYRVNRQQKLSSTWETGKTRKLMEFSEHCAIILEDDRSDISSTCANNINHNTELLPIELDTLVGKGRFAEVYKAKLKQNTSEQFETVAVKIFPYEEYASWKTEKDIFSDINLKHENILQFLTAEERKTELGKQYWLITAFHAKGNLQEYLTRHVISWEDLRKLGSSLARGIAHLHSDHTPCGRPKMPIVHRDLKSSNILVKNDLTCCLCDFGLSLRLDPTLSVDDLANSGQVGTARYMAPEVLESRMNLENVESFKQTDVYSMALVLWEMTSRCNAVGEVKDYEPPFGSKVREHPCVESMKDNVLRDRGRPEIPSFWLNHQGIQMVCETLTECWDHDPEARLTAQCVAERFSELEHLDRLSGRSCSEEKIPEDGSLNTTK

SMILES: Cc1ccc(C(=O)Nc2ccc(CN3CCN(C)CC3)c(C(F)(F)F)c2)cc1C#Cc1c(N)ncc2ccc(Cl)cc12 [HSN286]
IC50 (NCI H1703 (NSCLC)): 50 nM | inhibition at 0.5 µM (LYN): 98% | inhibition at 0.5 µM (IKKa/CHUK): 36% | inhibition at 0.5 µM (LYN B): 95% | inhibition at 0.5 µM (ROCK1): 0% | inhibition at 0.5 µM (HCK): 95% | inhibition at 0.5 µM (TRKC): 91% | inhibition at 0.5 µM (CTK/MATK): 0% | inhibition at 0.5 µM (HIPK1): 0% | inhibition at 0.5 µM (MKK7): 0% | inhibition at 0.5 µM (MELK): 27% | inhibition at 0.5 µM (c-kit): 61% | inhibition at 0.5 µM (FYN): 100% | inhibition at 0.5 µM (MEK1): 0% | inhibition at 0.5 µM (JNK1): 7% | inhibition at 0.5 µM (MUSK): 13% | inhibition at 0.5 µM (RET): 100% | inhibition at 0.5 µM (CDK1/cyclin E): 0% | inhibition at 0.5 µM (AKT2): 3% | inhibition at 0.5 µM (ZAP70): 0% | inhibition at 0.5 µM (RON/MST1R): 0% | inhibition at 0.5 µM (TGFBR2): 15% | inhibition at 0.5 µM (RSK2): 0% | IC50 (MOLM14): 0.72 ± 0.02 nM | IC50 (MOLM14; Homo sapiens, MOLM-14): 0.7 nM | Kd (FLT3): 6.5 nM and 7.2 nM

SMILES: Cc1ccc(C(=O)Nc2ccc(CN3CCN(C)CC3)c(C(F)(F)F)c2)cc1C#Cc1cnc(N)c2ccccc12 [HSN334, 3-((1-aminoisoquinolin-4-yl)ethynyl)-4-methyl-N-(4-((4-methylpiperazin-1-yl)methyl)-3-(trifluoromethyl)phenyl)benzamide]
IC50 (NCI H1703 (NSCLC)): 98 nM | inhibition at 0.5 µM (c-kit): 73% | inhibition at 0.5 µM (RET): 100% | proliferation inhibition in words, MOLM-14 (MOLM14): potent proliferation inhibitors | IC50 (MOLM14; Homo sapiens, MOLM-14): 1.61 ± 0.02 nM | Kd (FLT3): 5.1 nM

SMILES: Cc1ccc(C(=O)Nc2ccc(CN3CCN(C)CC3)c(C(F)(F)F)c2)cc1C#Cc1cnc(N)c2ncccc12 [HSN356, 3-((8-amino-1,7-naphthyridin-5-yl)ethynyl)-4-methyl-N-(4-((4-methylpiperazin-1-yl)methyl)-3-(trifluoromethyl)phenyl)benzamide]
IC50 (NCI H1703 (NSCLC)): 88 nM | inhibition at 0.5 µM (TRKC): 59% | inhibition at 0.5 µM (c-kit): 87% | inhibition at 0.5 µM (RET): 100% | proliferation inhibition in words, MOLM-14 (MOLM14): potent proliferation inhibitors | IC50 (MOLM14; Homo sapiens, MOLM-14): 0.62 ± 0.02 nM | Kd (FLT3): 1.3 nM

Further lines, results first:

Percentage kinase inhibition LYN (LYN): 6% | Percentage kinase inhibition IKKa/CHUK (IKKa/CHUK): 0% | Percentage kinase inhibition LYN B (LYN B): 0% | Percentage kinase inhibition ROCK1 (ROCK1): 0% | Percentage kinase inhibition HCK (HCK): 2% | % inhibition of TrkC (TRKC): 81% | Percentage kinase inhibition CTK/MATK (CTK/MATK): 0% | Percentage kinase inhibition HIPK1 (HIPK1): 42% | Percentage kinase inhibition MKK7 (MKK7): 0% | Percentage kinase inhibition MELK (MELK): 12% | % inhibition of c-Kit (c-kit): 83% | Percentage kinase inhibition FYN (FYN): 16% | Percentage kinase inhibition MEK1 (MEK1): 0% | Percentage kinase inhibition JNK1 (JNK1): 0% | Percentage kinase inhibition MUSK (MUSK): 35% | Percentage kinase inhibition RET (RET): 15% | Percentage kinase inhibition CDK1/cyclin E (CDK1/cyclin E): 13% | Percentage kinase inhibition AKT2 (AKT2): 18% | Percentage kinase inhibition ZAP70 (ZAP70): 0% | Percentage kinase inhibition RON/MST1R (RON/MST1R): 0% | Percentage kinase inhibition TGFBR2 (TGFBR2): 0% | Percentage kinase inhibition RSK2 (RSK2): 7% | IC50 (MOLM14): 102 ± 11 nM
SMILES: CN(C)CC(O)CNC(=O)c1ccc(C#Cc2c(N)ncc3ccc(Cl)cc23)cc1 (stereo not drawn) [HSM1702]

inhibition at 0.5 µM (TRKC): 0% | inhibition at 0.5 µM (c-kit): 31% | IC50 (MOLM14; Homo sapiens, MOLM-14): 415 ± 6.9 nM
SMILES: Cc1ccc(C(=O)Nc2ccc(CN3CCN(C)CC3)c(C(F)(F)F)c2)cc1C#Cc1cc(N)nc2ccccc12 [HSN285]

inhibition at 0.5 µM (LYN): 69% | inhibition at 0.5 µM (IKKa/CHUK): 6% | inhibition at 0.5 µM (LYN B): 35% | inhibition at 0.5 µM (ROCK1): 3% | inhibition at 0.5 µM (HCK): 18% | inhibition at 0.5 µM (TRKC): 4% | inhibition at 0.5 µM (CTK/MATK): 5% | inhibition at 0.5 µM (HIPK1): 0% | inhibition at 0.5 µM (MKK7): 6% | inhibition at 0.5 µM (MELK): 0% | inhibition at 0.5 µM (FYN): 10% | inhibition at 0.5 µM (MEK1): 2% | inhibition at 0.5 µM (JNK1): 0% | inhibition at 0.5 µM (MUSK): 0% | inhibition at 0.5 µM (RET): 96% | inhibition at 0.5 µM (CDK1/cyclin E): 0% | inhibition at 0.5 µM (AKT2): 0% | inhibition at 0.5 µM (ZAP70): 0% | inhibition at 0.5 µM (RON/MST1R): 0% | inhibition at 0.5 µM (TGFBR2): 0% | inhibition at 0.5 µM (RSK2): 0% | IC50 (MOLM14; Homo sapiens, MOLM-14): 456 ± 15 nM
SMILES: COc1cc2nc(N)nc(C#Cc3cc(C(=O)Nc4ccc(CN5CCN(C)CC5)c(C(F)(F)F)c4)ccc3C)c2cc1OC [HSN325]
